For 49 compounds, melting point results are on record in a melting point compilation (Tetko et al.).

On to `CC(C)NC(CCO)C1CCCCC1` (centres undefined), for which the melting point (commonly the temperature, or range, at which the solid turns liquid) was 35 to 37 °C.

Regarding `COc1ccc(/C=C/C(=O)O)cc1S(=O)(=O)Cl`, the melting point lay within 184 to 186 °C.

In the case of `O=C(Nc1nnc(-c2ccccn2)s1)OCC(F)(F)F`, the melting point is 246 to 248 °C.

As to `O=C(O)c1ccccc1N1CCCC1=O`, the melting point is 197 to 199 °C.

`O=C(O)CC(C(=O)O)c1ccccc1F` (centres undefined) yielded a melting point of 169 to 171 °C.

`O=C(O)C1CC(=O)N(c2ccc(Cl)cc2)C1` (centres undefined) returned a melting point of 149 to 151 °C.

In the case of `Nc1nnc(CCCc2cccs2)o1`, the melting point lay in the range of 149 to 151 °C.

`COCc1nc2cc(N)ccc2o1` gave a melting point of 54 to 56 °C.

Consider `O=C(O)Cc1ccccc1OC(F)F`, for which the melting point is 76 to 78 °C.

In turn, `COc1ccc(NCc2ccc(N(C)C)cc2)cc1` displayed a melting point of 102 to 104 °C.

With `OCc1ccn(-c2ccccc2)n1`, the melting point lay in the range of 49 to 51 °C.

Regarding `Nc1ccc(CC2CC(=O)NC2=O)cc1` (centres undefined), the melting point is 138 to 140 °C.

Take `Cc1cc(C(=O)NCC(=O)O)ccc1[N+](=O)[O-]`: the melting point lay in the range of 216 to 218 °C.

`CCOCCOc1ccc(Br)cc1C=O` showed a melting point of 28 to 30 °C.

Compound `O=C(O)Cn1nc(-c2cccs2)oc1=O` gave a melting point of 176 to 178 °C.

Take `CCNS(=O)(=O)c1ccc(C(=O)O)cc1`: the melting point was in the range of 219 to 221 °C.

Compound `Cc1cc(C(=O)O)c(C)n1-c1ccccn1` returned a melting point of 187 to 189 °C.

Take `OC(c1c(Cl)cccc1Cl)C1CCOCC1` (centres undefined): the melting point was in the range of 106 to 108 °C.

Take `CC(=O)C(CN1C(=O)c2ccccc2C1=O)C(C)=O`: the melting point was in the range of 169 to 171 °C.

As to `O=C(O)C=CC1CCC=CO1` (centres undefined), the melting point lay in the range of 81 to 83 °C.

For the compound `Nc1ccccc1NC(=O)CC1C=CCC1` (centres undefined), the melting point is 128 to 130 °C.

For `O=C1CCc2c(F)cc(Br)cc21`, the melting point lay within 114 to 116 °C.

For the compound `CN1CCN(C)c2cc(N)ccc2C1=O`, the melting point was 188 to 190 °C.

Compound `Cc1cc(F)ccc1N1CCCC(Br)C1=O` (centres undefined) displayed a melting point of 94 to 96 °C.

`O=C(Nc1ccc2c(c1)OCO2)C(Cl)(Cl)Cl` registered a melting point of 99 to 101 °C.

`COc1ccc(C=O)cc1Cl` yielded a melting point of 56 to 58 °C.

For `Sc1ncccc1Br`, the melting point lay in the range of 199 to 201 °C.

In turn, `CS(=O)(=O)Nc1ccccc1F` returned a melting point of 75 to 77 °C.

Regarding `NCC(O)COc1cccc(F)c1` (centres undefined), the melting point lay in the range of 84 to 86 °C.

On to `Nc1ccc(OCCO)nc1`, for which the melting point lay in the range of 63 to 65 °C.

`Cc1cc(C)c(C(N)=O)c(S)n1` showed a melting point of 167 to 170 °C.

On to `NC(CN1CCCCCC1)=NO`, for which the melting point was 124 to 126 °C.

The compound `CC(C)(C)OC(=O)NCC#N` gave a melting point of 53 to 57 °C.

For `O=C(O)c1c2c(nc3ccccc13)C(=Cc1cccs1)CCC2`, the melting point fell in the range of 176 to 178 °C.

The compound `Cc1cn2cc(Br)cc(C)c2n1` registered a melting point of 109 to 111 °C.

The compound `CC1Cc2cc(S(=O)(=O)Cl)ccc2O1` (centres undefined) returned a melting point of 73 to 75 °C.

In turn, `CN(C)C(=O)N1CCCC(C(=O)O)C1` (centres undefined) gave a melting point of 123 to 125 °C.

`COc1cc(C(C)=O)ccc1OCCCC(=O)O` showed a melting point of 163 to 165 °C.

For the compound `Cc1[nH]nc(C(N)=O)c1N`, the melting point was in the range of 219 to 221 °C.

`CC(C)(C)n1cnc(N)n1`: the melting point was 135 to 137 °C.

Turning to `O=C(O)c1cc2ccc(OC(F)(F)F)cc2[nH]1`, the melting point lay within 160 to 162 °C.

The compound `CS(=O)Cc1cccc(C(=O)O)c1` (centres undefined) yielded a melting point of 181 to 183 °C.

The compound `CC1(C)Cc2ccc(Cl)cc2C1O` (centres undefined) displayed a melting point of 94 to 96 °C.

`NS(=O)(=O)N1CCC(C(=O)O)CC1`: the melting point was 177 to 179 °C.

The compound `CN(C)C(=O)Cn1cc(C(=O)O)nn1` gave a melting point of 199 to 201 °C.

`O=C(O)C(Oc1ccc(Cl)cc1Br)c1ccccc1` (centres undefined): the melting point fell in the range of 135 to 137 °C.

In turn, `COCc1ccc(C(=O)O)o1` displayed a melting point of 63 to 65 °C.

The compound `NS(=O)(=O)c1cc(Br)ccc1Cl` returned a melting point of 179 to 181 °C.

In turn, `COc1cccc(-n2c(CC(=O)NN)csc2=NCc2ccco2)c1` displayed a melting point of 151 to 153 °C.
